This is an account of results in patent US20230109839A1, “THERAPEUTIC AGENT FOR TAUOPATHIES” (SUMITOMO PHARMA CO., LTD., priority 2020, published 2023).

For the first experiment, the target named is T1, human Nav1.1 (Homo sapiens, UniProt P35498).
T1 construct: host or cells: HEK293
The experiment in a line: Amplification of Nav1.1-derived voltage-gated sodium current (Nav1.1 current), automated patch clamp (Test 1). Format: cell-based. The settings on record: Concentration for evaluation 1 μM; HEK293 cell line stably expressing human Nav1.1. The method, boiled down:
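Compound-induced change in ramp-evoked sodium current peak and AUC was expressed as 100×post/pre ratio minus 100. Recordings used automated patch clamp in voltage-clamp mode on a stable human Nav1.1 HEK293 line, including only cells above 500 pA. Compounds were delivered in extracellular fluid containing 1% DMSO.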
For orientation: Patch clamp records ionic current or voltage across a cell membrane.
Regarding `CN(c1cnc2cnn(CC(=O)Nc3ccc4nccnc4c3)c2n1)C1CCCC1` [Example 680], the “Nav1.1 current amplification rate (%)” value stood at 50%.
With `CC1CC=C(c2ccc(=O)n(CC(=O)N3CC=C(c4ccncc4)C3)n2)CC1` (stereo not drawn) [Example 387], the “Nav1.1 current amplification rate (%)” value came to 19%.
Turning to `O=C(Cn1ncc2cnc(N3CCC4(CC4)C(F)(F)C3)nc21)Nc1ccn2ncnc2c1` [Example 792], the “Nav1.1 current amplification rate (%)” value amounted to 161%.
The same measure, in the same setting: as for `CC1CC=C(c2ccc(=O)n(CC(=O)N3CCc4cc(OCC(C)(C)O)ccc43)n2)CC1` (stereo not drawn) [Example 320], the figure is 10%.
Turning to `CN(c1cnc2cnn(CC(=O)Nc3ccn4ncnc4c3)c2n1)C1CCC(F)(F)C1` (stereo not drawn) [Example 628], the “Nav1.1 current amplification rate (%)” value was determined as 14%.
On the same count and under the same terms, as for `CC1CC=C(c2cnc3cnn(CC(=O)Nc4ccc5ncnn5c4)c3n2)CC1` (stereo not drawn) [Example 653], the figure is 173%.
The same measure, in the same setting: under `CC1CC=C(c2ccc(=O)n(CC(=O)N3CC=C(c4ccncc4)CC3)n2)CC1` (stereo not drawn) [Example 419] stands 66%.
`Cc1cc(NC(=O)Cn2ncc3ncc(N(C)C4CCCC4)nc32)cc2nccn12` [Example 684]: the “Nav1.1 current amplification rate (%)” value is given as 39%.
For the compound `CC1CC=C(c2ccc(=O)n(CC(=O)N3CCc4c(CN5CC=CC5)cccc43)n2)CC1` (stereo not drawn) [Example 287], the “Nav1.1 current amplification rate (%)” value is given as 73%.
Consider `Cc1cn2ccc(NC(=O)Cn3ncc4ncc(N(C)C5CCC5)nc43)cc2n1` [Example 686], for which the “Nav1.1 current amplification rate (%)” value worked out at 13%.
For `CN(CC1CC1)c1cnc2cnn(CC(=O)Nc3ccc4ncnn4c3)c2n1` [Example 663], the “Nav1.1 current amplification rate (%)” value was 13%.
Turning to `CN(CC1(F)CC1)c1cnc2cnn(CC(=O)Nc3ccn4ncnc4c3)c2n1` [Example 640], the “Nav1.1 current amplification rate (%)” value is listed as 38%.
On to `CC1(C)CCN(c2cnc3cnn(CC(=O)Nc4ccc5ncnn5c4)c3n2)CC1` [Example 654], for which the “Nav1.1 current amplification rate (%)” value turned out to be 23%.
Turning to `CN(c1cnc2cnn(CC(=O)Nc3cnc4ccccc4c3)c2n1)C1CC1` [Example 719], the “Nav1.1 current amplification rate (%)” value is 78%.
With `O=C(Cn1ncc2cnc(C3=CCCCC3)nc21)Nc1ccn2ncnc2c1` [Example 786], the “Nav1.1 current amplification rate (%)” value was determined as 34%.
For the compound `CN(c1cnc2cnn(CC(=O)N3CCc4c(C5=CCOCC5)cccc43)c2n1)C1CCC1` [Example 688], the “Nav1.1 current amplification rate (%)” value was 201%.
In the case of `CN(c1cnc2cnn(CC(=O)Nc3ccc(Cl)nc3)c2n1)C1CC1` [Example 722], the “Nav1.1 current amplification rate (%)” value is 35%.
Regarding `CN(c1cnc2cnn(CC(=O)Nc3ccc4cnccc4n3)c2n1)C1CC1` [Example 721], the “Nav1.1 current amplification rate (%)” value amounted to 17%.
On the same count and under the same terms, under `CN(c1cnc2cnn(CC(=O)N3CCc4c3cccc4C(C)(C)O)c2n1)C1CC1` [Example 734] stands 107%; under `O=C(Cn1nc(C2=CCCCC2)ccc1=O)N1CCc2c(N3CCOCC3)cccc21` [Example 480], 110%.
The same measure, in the same setting: as for `Cc1cc(NC(=O)Cn2ncc3ncc(N(C)C4CC4)nc32)cc2ncnn12` [Example 704], the figure is 109%.

The experiment is the same for the next values; noted with them: Concentration for evaluation 3 μM; HEK293 cell line stably expressing human Nav1.1.
Regarding `CC1CC=C(c2ccc(=O)n(CC(=O)N3CCc4c(C5CCN(C)C5)cccc43)n2)CC1` (stereo not drawn) [Example 269], the “Nav1.1 current amplification rate (%)” value is reported as 127%.
As for `COCC1(N(C)c2cnc3cnn(CC(=O)Nc4ccn5ncnc5c4)c3n2)CC1` [Example 629], the “Nav1.1 current amplification rate (%)” value turned out to be 15%.
As for `CC1(C)CC=C(c2ccc(=O)n(CC(=O)N3CCc4c(C5CN(C(=O)CO)C5)cccc43)n2)CC1` [Example 437], the “Nav1.1 current amplification rate (%)” value stood at 582%.
As for `CC1CC=C(c2ccc(=O)n(CC(=O)Nc3ccn4cc(C5CC5)nc4c3)n2)CC1` (stereo not drawn) [Example 334], the “Nav1.1 current amplification rate (%)” value was determined as 255%.
As for `CC1CC=C(c2ccc(=O)n(CC(=O)Nc3ccc4oc(CN5CCC5)nc4c3)n2)CC1` (stereo not drawn) [Example 333], the “Nav1.1 current amplification rate (%)” value stood at 25%.
With `CC1CC=C(c2ccc(=O)n(CC(=O)N3CCc4c(CN5CCCC5)cccc43)n2)CC1` (stereo not drawn) [Example 271], the “Nav1.1 current amplification rate (%)” value turned out to be 48%.

Staying with this experiment, now noted: Concentration for evaluation 10 μM; HEK293 cell line stably expressing human Nav1.1.
Take `CC1CCN(c2ccc(=O)n(CC(=O)Nc3ccc4c(c3)CCNC4=O)n2)CC1` [Example 93]: the “Nav1.1 current amplification rate (%)” value worked out at 65%.
On the same count and under the same terms, under `Cc1nc2ccc(NC(=O)Cn3nc(N4CCC(C)CC4)ccc3=O)cc2o1` [Example 68] stands 42%; under `CC1(C)CC=C(c2ccc(=O)n(CC(=O)Nc3ccc4c(c3)OCC4)n2)CC1` [Example 426], 244%; under `N#Cc1ccc(NC(=O)Cn2nc(N3CCCC(C(N)=O)C3)ccc2=O)cc1` (stereo not drawn) [Example 8], 4%.
In the case of `CC1CCN(c2ccc(=O)n(CC(=O)Nc3cccc(-c4cnco4)c3)n2)CC1` [Example 77], the “Nav1.1 current amplification rate (%)” value stood at 93%.
Consider `N#Cc1ccc(NC(=O)Cn2nc(C3CCC(F)(F)CC3)ccc2=O)cc1` [Example 47], for which the “Nav1.1 current amplification rate (%)” value is reported as 11%.
For `CC1CCCN(c2ccc(=O)n(CC(=O)Nc3ccc(C#N)cc3)n2)C1` (stereo not drawn) [Example 13], the “Nav1.1 current amplification rate (%)” value was 76%.
With `Cc1noc2ccc(NC(=O)Cn3nc(N4CCC(C)CC4)ccc3=O)cc12` [Example 70], the “Nav1.1 current amplification rate (%)” value was determined as 68%.
For the compound `CC1CCN(c2ccc(=O)n(CC(=O)Nc3ccc(C(F)(F)F)nc3)n2)CC1` [Example 59], the “Nav1.1 current amplification rate (%)” value turned out to be 180%.
Still for that read-out and setting: under `CC1C=C(c2ccc(=O)n(CC(=O)Nc3ccc(C#N)cc3)n2)CC(C)O1` (stereo not drawn) [Example 49] stands 2%; under `CC1CCN(c2ccc(=O)n(CC(=O)Nc3ccnc(C#N)c3)n2)CC1` [Example 53], 161%.
With `CC1CC=C(c2ccc(=O)n(CC(=O)N3CC=C(c4cncc(F)c4)CC3)n2)CC1` (stereo not drawn) [Example 397], the “Nav1.1 current amplification rate (%)” value stood at 273%.
`CC1CC=C(c2ccc(=O)n(CC(=O)N3CCc4c3ccnc4Cl)n2)CC1` (stereo not drawn) [Example 247]: the “Nav1.1 current amplification rate (%)” value amounted to 53%.
For `N#Cc1ccc(NC(=O)Cn2nc(N3CC4CC4C3)ccc2=O)cc1` (stereo not drawn) [Example 18], the “Nav1.1 current amplification rate (%)” value is given as 11%.
Regarding `CC1CC=C(c2ccc(=O)n(CC(=O)N3CC=C(c4cccnc4)CC3)n2)CC1` (stereo not drawn) [Example 402], the “Nav1.1 current amplification rate (%)” value was found to be 323%.
The same measure, in the same setting: as for `COc1cc(-c2cc(Cl)cs2)nn(CC(=O)Nc2ccn3ccnc3c2)c1=O` [Example 466], the figure is 233%; as for `CC1CCN(c2ccc(=O)n(CC(=O)Nc3ccc(C(=O)N4CCCC4)cc3)n2)CC1` [Example 79], 165%; as for `CC1CCN(c2ccc(=O)n(CC(=O)Nc3ccnc(N(C)C)c3)n2)CC1` [Example 57], 48%.
On the same count and under the same terms, as for `COCOc1cccc2c1CCN2C(=O)Cn1nc(C2=CCC(C)(C)CC2)ccc1=O` [Example 435], the figure is 262%; as for `CC1CC=C(c2ccc(=O)n(CC(=O)N3CC4(C3)CN(c3cccnc3)C4)n2)CC1` (racemic) [Example 424], 40%.

The experiment is the same for the next values; noted with them: Concentration for evaluation 50 μM; HEK293 cell line stably expressing human Nav1.1.
`Cc1cc2ncnn2cc1NC(=O)Cn1nc(C2=CCC(C)CC2)ccc1=O` (stereo not drawn) [Example 351]: the “Nav1.1 current amplification rate (%)” value is listed as 98%.
Turning to `CC1CC=C(c2ccc(=O)n(CC(=O)N3CC=C(c4cccnc4)C3)n2)CC1` (stereo not drawn) [Example 386], the “Nav1.1 current amplification rate (%)” value amounted to 126%.
Same read-out and setting: under `N#Cc1ccc(-c2ncc3cnn(CC(=O)Nc4ccn5ncnc5c4)c3n2)s1` [Example 778] stands 13%.

The experiment is the same for the next values; noted with them: HEK293, Concentration for evaluation 1 μM; HEK293 cell line stably expressing human Nav1.1; read-out: Nav1.1 current amplification rate (%).
Consider `CN(c1cnc2cnn(CC(=O)Nc3ccc(C#N)nn3)c2n1)C1CC(C)(C)C1` [Example 761], for which the activation at 1 µM came out at 43%.
The same measure, in the same setting: under `CN(c1cnc2cnn(CC(=O)Nc3ccc(C#N)nc3)c2n1)C1CC(C)(C)C1` [Example 756] stands 104%; under `CN(CC1(C)CC1)c1cnc2cnn(CC(=O)Nc3cnc4cccnc4c3)c2n1` [Example 760], 104%; under `Cc1cc(NC(=O)Cn2ncc3ncc(N4CCC5(CC5)C(F)(F)C4)nc32)cc2ncnn12` [Example 741], 61%.

Still in this experiment, the particulars now being: HEK293, Concentration for evaluation 10 μM; HEK293 cell line stably expressing human Nav1.1; read-out: Nav1.1 current amplification rate (%).
Turning to `N#Cc1cncc(NC(=O)Cn2nc(N3CCCCC3)ccc2=O)c1` [Example 108], the activation at 10 µM was 5%.

The same experiment, now with this note: HEK293, concentration for evaluation 1 μM; HEK293 stably expressing human Nav1.1; read-out: Nav1.1 current amplification rate (%).
As to `CN(c1ccc2cnn(CC(=O)Nc3cnc4cccnc4c3)c2n1)C1CCCC1` [Example 891], the activation at 1 µM amounted to 81%.
As to `CC1CC=C(c2ccc3cnn(CC(=O)Nc4ccc5ocnc5c4)c3n2)CC1` (stereo not drawn) [Example 883], the activation at 1 µM stood at 164%.
On to `CN(c1ncc2cnn(CC(=O)Nc3ccc(C#N)nc3)c2n1)C1CC2(CC2)C1` [Example 845], for which the activation at 1 µM is 76%.
On the same count and under the same terms, as for `N#Cc1ccc(NC(=O)Cn2ncc3ccc(N4CCC5(CC5)C(F)(F)C4)nc32)cn1` [Example 890], the figure is 68%.
In the case of `CN(CC1CCC1)c1ccc2cnn(CC(=O)Nc3cnc4cccnc4c3)c2n1` [Example 889], the activation at 1 µM turned out to be 151%.

The experiment is the same for the next values; noted with them: concentration for evaluation 1 μM; HEK293 stably expressing human Nav1.1.
As for `N#Cc1ncc(NC(=O)Cn2ncc3cnc(N4CCC5(CC5)C(F)(F)C4)nc32)cn1` [Example 827], the “Nav1.1 current amplification rate (%)” value amounted to 29%.

Still in this experiment, the particulars now being: concentration for evaluation 50 μM; HEK293 stably expressing human Nav1.1.
Consider `CN(c1ncc2cnn(CC(=O)Nc3ccc4ncnn4c3)c2n1)C1CC1` [Example 818], for which the “Nav1.1 current amplification rate (%)” value is 195%.
Take `CC1CCN(c2ccc3cnn(CC(=O)Nc4ccc(C(F)(F)F)nc4)c3n2)CC1` [Example 879]: the “Nav1.1 current amplification rate (%)” value amounted to 16%.
